Measurements published in ChEMBL document CHEMBL1142112, “Antiproliferative xanthones of Terminalia calcicola from the Madagascar rain forest” (J Nat Prod, 2007).

Test system: A2780
Assay: Antiproliferative activity against human A2780 cells
Type: cell-based

| IC50 | Compound |
| --- | --- |
| 40.6 µM | CC(C)=CCc1c(O)ccc2oc3c(O)c4c(c(O)c3c(=O)c12)C=CC(C)(C)O4 [TERMICALCICOLANONE A] |
| 8.1 µM | CC(C)=CCc1c(O)c(O)cc2oc3c4c(cc(O)c3c(=O)c12)OC(C)(C)C=C4 |
